Source: patent US20240140944A1, “NOVEL NAPHTHYRIDINONE DERIVATIVE HAVING INHIBITORY ACTIVITY AGAINST ECTONUCLEOTIDE PYROPHOSPHATASE-PHOSPHODIESTERASE AND USE THEREOF” (TXINNO BIOSCIENCE INC., priority 2020, published 2024)
Structures can show the parent of a compound that is named as a salt.

Assays:
[1] = target: T1, human recombinant ENPP1 enzymes (Homo sapiens, UniProt P22413); test: ENPP1 Enzyme Assay with cGAMP Substrate (AMP-Glo); type: biochemical; details: human recombinant ENPP1 3 ng/reaction, cGAMP 5 μM, 37° C. 90 minutes, average of two or more tests; read-out: Enzymatic activity IC50
T1 construct: purchased R & D systems
T1 sequence (P22413 1-925): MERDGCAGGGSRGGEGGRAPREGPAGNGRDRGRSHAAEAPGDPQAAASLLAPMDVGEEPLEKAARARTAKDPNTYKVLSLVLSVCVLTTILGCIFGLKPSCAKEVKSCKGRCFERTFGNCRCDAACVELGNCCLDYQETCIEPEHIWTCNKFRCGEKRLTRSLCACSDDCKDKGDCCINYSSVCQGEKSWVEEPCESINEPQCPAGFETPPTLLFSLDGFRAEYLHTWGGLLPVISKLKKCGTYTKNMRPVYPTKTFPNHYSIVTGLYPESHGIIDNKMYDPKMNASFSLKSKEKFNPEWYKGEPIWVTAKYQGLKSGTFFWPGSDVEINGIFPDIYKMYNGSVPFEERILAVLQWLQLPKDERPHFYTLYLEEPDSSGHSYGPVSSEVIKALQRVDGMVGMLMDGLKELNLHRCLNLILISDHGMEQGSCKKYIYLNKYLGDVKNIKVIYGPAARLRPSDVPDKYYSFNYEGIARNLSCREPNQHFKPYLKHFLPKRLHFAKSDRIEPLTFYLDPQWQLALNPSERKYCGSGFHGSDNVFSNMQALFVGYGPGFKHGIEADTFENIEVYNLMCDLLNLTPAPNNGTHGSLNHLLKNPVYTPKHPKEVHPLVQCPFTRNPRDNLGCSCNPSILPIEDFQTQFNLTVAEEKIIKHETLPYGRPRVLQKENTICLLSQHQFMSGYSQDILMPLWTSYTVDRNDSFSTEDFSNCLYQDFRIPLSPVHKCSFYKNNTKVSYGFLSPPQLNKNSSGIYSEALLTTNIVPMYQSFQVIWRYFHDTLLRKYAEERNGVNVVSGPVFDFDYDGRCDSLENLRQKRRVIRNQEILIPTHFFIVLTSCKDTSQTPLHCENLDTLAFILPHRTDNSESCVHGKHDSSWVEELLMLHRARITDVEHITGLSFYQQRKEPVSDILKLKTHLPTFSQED
In short: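 Human recombinant ENPP1 (3 ng/reaction) preincubated 5–10 min at RT with inhibitor, then reacted with 5 µM cGAMP for 90 min at 37 °C in 50 mM Tris pH 8.5, 250 mM NaCl, 0.5 mM CaCl2, 1 µM ZnCl2, 1% DMSO. AMP produced read by AMP-Glo luminescence; IC50 from 3-parameter fit, averaged over ≥2 runs.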

[2] = test system: interferon regulatory factor 3 (IRF3) in HCT116-Dual cells; test: HCT116-Dual Cell Luciferase Assay (ISG54 promoter, IRF3 activity); type: cell-based; details: ENPP1 inhibitor usually 10 μM plus cGAMP 10 μM, 48 hours, Lucia luciferase
Source text: HCT116-Dual™ cells express genes encoding luciferase secreted under the control of the interferon-stimulated gene 54 (ISG54) promoter along with five interferon-stimulated response elements. The HCT116-Dual™ cell line was used to measure and monitor the activity of interferon regulatory factor 3 (IRF3), which induces production of type I interferon and relates to downstream signaling, and Lucia secreted in the culture medium was used to generate luminescence in a luciferase reaction.
HCT116-Dual™ cells were cultured at 2×10^4 cells/well (93.4 μL) in a 96-well plate for one day in a DMEM medium containing 10% FBS and 25 mM HEPES (pH 7.2-7.5). The cells were treated with 3.3 μL of ENPP1 inhibitor (usually 10 μM) and then 3.3 μL of cGAMP (10 μM) to set the final volume to 100 μL (The final fraction of DMSO was 0.1%). The cells treated with ENPP1 inhibitor and cGAMP were cultured at 37° C. for 48 hours and 50 μL of Quanti-Luc reaction solution was added to 20 μL of cell culture medium to measure luciferase activity. The increase in interferon regulatory factor 3 (IRF3) by the compound compared to cGAMP was determined as fold.

| SMILES | IC50 [1] [nM] | Cellular activity: increase in IRF3 by the compound compared to cGAMP, as fold [2] |
| --- | --- | --- |
| CCNCc1ccc(-c2ccnc3[nH]c(=O)ccc23)cc1F.Cl [Example 24, 5-(4-((ethylamino)methyl)-3-fluorophenyl)-1,8-naphthyridin-2(1H)-one hydrochloride] | > 10000 | B (1< Fold <2) |
| Cl.O=c1ccc2c(-c3ccc(CNC4CC4)cc3F)ccnc2[nH]1 [Example 22, 5-(4-((cyclopropylamino)methyl)-2-fluorophenyl)-1,8-naphthyridin-2(1H)-one hydrochloride] | 1000 to 10000 | B (1< Fold <2) |
| Cl.O=c1ccc2c(-c3ccc(CNC4CC4)c(F)c3)ccnc2[nH]1 [Example 25, 5-(4-((cyclopropylamino)methyl)-3-fluorophenyl)-1,8-naphthyridin-2(1H)-one hydrochloride] | 1000 to 10000 | A (>2) |
| CC(C)NCc1ccc(-c2ccnc3[nH]c(=O)ccc23)c(F)c1.Cl [Example 21, 5-(2-fluoro-4-((isopropylamine)methyl)phenyl)-1,8-naphthyridin-2(1H)-one hydrochloride] | > 10000 | B (1< Fold <2) |
| CCN(CCc1cccc(Nc2ccnc3[nH]c(=O)ccc23)c1)S(N)(=O)=O [Example 94, N-ethyl-N-(3-((7-oxo-7,8-dihydro-1,8-naphthyridin-4-yl)amino)phenethyl)sulfamide dihydrochloride] | < 1000 | B (1< Fold <2) |
| Cl.O=c1ccc2c(-c3cc4c(cc3F)CCNC4)ccnc2[nH]1 [Example 28, 5-(6-fluoro-1,2,3,4-tetrahydroisoquinolin-7-yl)-1,8-naphthyridin-2(1H)-one hydrochloride] | < 1000 | B (1< Fold <2) |
| NS(=O)(=O)N1CCc2ccc(-c3ccnc4[nH]c(=O)ccc34)cc2C1 [Example 65, 7-(7-oxo-7,8-dihydro-1,8-naphthyridin-4-yl)dihydroisoquinoline-2(1H)-sulfamide hydrochloride] | < 1000 | B (1< Fold <2) |
| C[C@@H](c1ccc(-c2ccnc3[nH]c(=O)ccc23)cc1)N(C)S(N)(=O)=O [Example 61, (S)-(N-methyl-N-(1-(4-(7-oxo-7,8-dihydro-1,8-naphthyridin-4-yl)phenyl)ethyl)sulfamide hydrochloride] | < 1000 | B (1< Fold <2) |
| Cl.NCc1ccc(-c2ccnc3[nH]c(=O)ccc23)c(F)c1F [Example 13, 5-(4-(aminomethyl)-2,3-difluorophenyl)-1,8-naphthyridin-2(1H)-one hydrochloride] | < 1000 | A (>2) |
| Cl.NS(=O)(=O)N(Cc1ccc(-c2ccnc3[nH]c(=O)ccc23)cc1F)C1CC1 [Example 54, N-cyclopropyl-N-(2-fluoro-4-(7-oxo-7,8-dihydro-1,8-naphthyridin-4-yl)benzyl)sulfamide hydrochloride] | < 1000 | B (1< Fold <2) |
| NS(=O)(=O)NCc1cccc(-c2ccnc3c2CCC(=O)N3)c1 [Example 140, N-(3-(7-oxo-5,6,7,8-tetrahydro-1,8-naphthyridin-4-yl)benzyl)sulfamide] | < 1000 | B (1< Fold <2) |
| Cl.NCc1ccc(-c2ccnc3[nH]c(=O)ccc23)c(F)c1 [Example 11, 5-(4-(aminomethyl)-2-fluorophenyl)-1,8-naphthyridin-2(1H)-one hydrochloride] | < 1000 | A (>2) |
| Cl.NS(=O)(=O)N1CCc2ccc(-c3ccnc4c3CCC(=O)N4)cc2C1 [Example 145, (7-(7-oxo-5,6,7,8-tetrahydro-1,8-naphthyridin-4-yl)-3,4-dihydroisoguinolin-2(1H)-yl)sulfamide hydrochloride] | < 1000 | B (1< Fold <2) |
| Cl.NCc1ccc(-c2ccnc3[nH]c(=O)ccc23)cc1 [Example 10, 5-(4-(aminomethyl)phenyl)-1,8-naphthyridin-2(1H)-one hydrochloride] | < 1000 | B (1< Fold <2) |

The next lines start with results.

| IC50 [1] [nM] | SMILES | Cellular activity: increase in IRF3 by the compound compared to cGAMP, as fold [2] |
| --- | --- | --- |
| < 1000 | NS(=O)(=O)N1Cc2ccc(-c3ccnc4[nH]c(=O)ccc34)cc2C1 [Example 64, 5-(7-oxo-7,8-dihydro-1,8-naphthyridin-4-yl)isoindolin-2-yl)sulfamide hydrochloride] | B (1< Fold <2) |
| < 1000 | CCN(Cc1ccc(-c2ccnc3[nH]c(=O)ccc23)cc1F)S(N)(=O)=O.Cl [Example 53, N-ethyl-N-(2-fluoro-4-(7-oxo-7,8-dihydro-1,8-naphthyridin-4-yl)benzyl)sulfamide hydrochloride] | B (1< Fold <2) |
| < 1000 | NS(=O)(=O)Nc1cc(-c2ccnc3[nH]c(=O)ccc23)ccc1F [Example 36, N-(2-fluoro-5-(7-oxo-7,8-dihydro-1,8-naphthyridin-4-yl)phenyl)sulfamide hydrochloride] | B (1< Fold <2) |
| < 1000 | NS(=O)(=O)NCc1ccc(-c2ccnc3[nH]c(=O)ccc23)c(F)c1 [Example 42, N-(3-fluoro-4-(7-oxo-7,8-dihydro-1,8-naphthyridin-4-yl)benzyl)sulfamide hydrochloride] | A (>2) |
| < 1000 | CN(Cc1ccc(-c2ccnc3[nH]c(=O)ccc23)cc1F)S(N)(=O)=O.Cl [Example 52, N-(2-fluoro-4-(7-oxo-7,8-dihydro-1,8-naphthyridin-4-yl)benzyl)-N-methylsulfamide hydrochloride] | B (1< Fold <2) |
| < 1000 | Cl.NCc1ccc(-c2ccnc3[nH]c(=O)ccc23)cc1F [Example 12, 5-(4-(aminomethyl)-3-fluorophenyl)-1,8-naphthyridin-2(1H)-one hydrochloride] | A (>2) |
| < 1000 | NS(=O)(=O)NCc1cccc(-c2ccnc3[nH]c(=O)ccc23)c1 [Example 37, N-(3-(7-oxo-7,8-dihydro-1,8-naphthyridin-4-yl)benzyl)sulfamide] | B (1< Fold <2) |
| < 1000 | NS(=O)(=O)NCc1ccc(-c2ccnc3c2CCC(=O)N3)cc1F [Example 142, N-(2-fluoro-4-(7-oxo-5,6,7,8-tetrahydro-1,8-naphthyridin-4-yl)benzyl)sulfamide] | B (1< Fold <2) |
| < 1000 | NS(=O)(=O)N1CCc2ccc(Nc3ccnc4[nH]c(=O)ccc34)cc2C1 [Example 102, 7-((7-oxo-7,8-dihydro-1,8-naphthyridin-4-yl)amino)-3,4-dihydroisoquinolin-2(1H)-yl)sulfamide dihydrochloride] | A (>2) |
| < 1000 | CN(CCc1cccc(Nc2ccnc3[nH]c(=O)ccc23)c1)S(N)(=O)=O [Example 93, N-methyl-N-(3-((7-oxo-7,8-dihydro-1,8-naphthyridin-4-yl)amino)phenethyl)sulfamide dihydrochloride] | B (1< Fold <2) |
